Source: patent publication US6310067A, “Urocanic acid derivatives” (Senju Pharmaceutical Co., Ltd., priority 1998, dated 2001)
Read-outs that look alike come from different tables or passages of the source.

Columns and labels:
allergy = conditions: background statement, cited from earlier work
[1] = test system: type IV allergy (afferent phase), mouse contact-type dermatitis in auricles; test: Type IV allergy (afferent phase), DNFB contact-type dermatitis in auricles, oral administration; type: in vivo, Male C57BL/6J mice; conditions: 30 mg/kg, 1 hr before sensitization, vs distilled water, n = 7-9
Experimental: The present compound was assessed for its effect on type IV allergy (afferent phase) through oral administrations, using a DNFB contact-type dermatitis model.
(§1) Male C57BL/6J mice purchased from Clea Japan, Inc. were used.
The test compounds were orally administered to the mice. One hr later, sensitization was performed by applying 30 μl of 0.5% DNFB acetone solution. Five days after the sensitization procedure, 10 μl of 0.1% DNFB dissolved in acetone was applied to their right auricles to induce contact-type dermatitis. Then, 24 hrs later, the thickness of the auricles was measured and the rate of edema calculated.

[2] = test system: type IV allergy (efferent phase), mouse contact-type dermatitis in auricles; test: Type IV allergy (efferent phase), DNFB contact-type dermatitis in auricles; type: in vivo, Male C57BL/6J mice; conditions: n = 9-11, 1 hr before induction
Experimental: The present compound was assessed for its effect on type IV allergy (efferent phase) through oral and topical administrations, using a DNFB contact-type dermatitis model.
as §1
The mice which had their abdominal hair removed on the previous day were sensitized by applying to them on a 1-cm^2 area of their abdominal surface 25 μl of 0.5% dinitrofluorobenzene (DNFB) dissolved in acetone, under anesthesia with ketamine hydrochloride: xylazine hydrochloride (9:1). Five days after the sensitization procedure, 10 μl of 0.1% DNFB dissolved in acetone was applied to the outer side of their right auricles to induce infammation. Twenty-four hrs after the induction of inflammation, the thickness of the auricles was measured with a dial thickness gauge (manufactured by Ozaki Seisakusho) and the rate of edema calculated by comparing it with pre-induction thickness.
The test compounds were administered either orally or by topically applying 15 μl of its solution onto the outer side of the auricles, 1 hr before the induction.

[3] = test system: rat type I allergy (PCA reaction); test: Rat type I allergy: passive anaphylaxis (PCA) reaction, oral administration; type: in vivo, Male Wistar rats; conditions: 100 mg/5 ml/kg oral, 60 min before PCA provocation; for Optical density: 625 nm, mean ± standard deviation, n = 5-6; for Inhibition rate (%): vs CMC-Na
Experimental: The present compound was assessed for its effect on type I allergy through oral administration.
The compound of Example 1 100 mg/5 ml/kg
Male Wistar rats purchased from SLC Japan were used in the test.
The rats were intracutaneously injected in the back with 100 μl of antiserum (16-fold dilution) under pentobarbital anesthesia. Forty-eight hrs later, the animals were injected with 5 ml/kg of a mixture of ovalbumin (25 mg/kg) and Evans blue (12.5 mg/kg) to provoke passive anaphylaxis (PCA) reaction.
The rats were sacrificed 30 min after the provocation of PCA reaction and dye-infiltrated region of their back skin was cut out, the dye extracted with 5 ml of formamide and its optical density measured (625 nm).
Each of the test compounds was orally administered 60 min before the provocation of PCA reaction.

[4] = topical, concentration 0.2%, vs methanol
[5] = topical, concentration 0.5%, vs methanol
[6] = Table 4, topically applied (as titled), concentration 0.5%, vs CMC-Na

O=C(O)/C=C/c1c[nH]cn1 [urocanic acid, Urocanic acid]
effect on delayed allergy (allergy; listed as Urocanic acid): suppressive effect on delayed allergy
effect on delayed allergy (allergy): by no means satisfactory

COC(=O)C=Cc1cn(CCN2CCN(C(c3ccccc3)c3ccccc3)CC2)cn1 [Example 1, 1-(Diphenylmethylpiperazinylethyl)urocanic Acid Methyl Ester]
Inhibition rate (%) [1]: 47.8%
Inhibition rate (%) [2, 4]: 73.5%
Inhibition rate (%) [2, 5]: 83.9%
Optical density [3]: 0.413 ± 0.051
Inhibition rate (%) [3]: 28.7%

O=C(O)C=Cc1cn(CCN2CCN(C(c3ccccc3)c3ccccc3)CC2)cn1 [Example 2, 1-(Diphenylmethylpiperazinylethyl)urocanic Acid]
Inhibition rate (%) [1]: 56.2%

COC(=O)C=Cc1cn(CC=Cc2ccccc2)cn1 [Example 17, 1-(3-Phenyl-2-propenyl)urocanic Acid Methyl Ester]
Inhibition rate (%) [2, 6]: 70.5%

COC(=O)C=Cc1cn(CCN2CCN(C(c3ccccc3)c3ccccn3)CC2)cn1 (stereo not shown) [Example 3, 1-[Phenyl(2-pyridyl)methylpiperazinylethyl]urocanic Acid Methyl Ester]
Inhibition rate (%) [1]: 49.5%
Inhibition rate (%) [2, 4]: 47.5%
Inhibition rate (%) [2, 5]: 79.2%
Optical density [3]: 0.409 ± 0.033
Inhibition rate (%) [3]: 29.2%

COC(=O)C=Cc1cn(-c2nccs2)cn1 [Example 9, 1-(2,5-Thiazolyl)urocanic Acid Methyl Ester]
Inhibition rate (%) [2, 6]: 89.9%

COC(=O)C=Cc1cn(-c2ccc(N)cc2)cn1 [Example 5, 1-(4-Aminophenyl)urocanic Acid Methyl Ester]
Inhibition rate (%) [2, 4]: 99.9%
